Assay results as given in the NIST ThermoML archive (doi:10.1016/j.fluid.2008.04.021).
± gives the expanded uncertainty stated by the source.

Assay: excess molar enthalpy (molar enthalpy of mixing); xn = mol fraction of the nth substance listed
Details: Liquid

Compound | excess molar enthalpy (298.15 K, x1 = 1) | excess molar enthalpy (298.15 K, x2 = 0) | excess molar enthalpy (298.15 K, x2 = 0.05) | excess molar enthalpy (298.15 K, x2 = 0.1) | excess molar enthalpy (298.15 K, x2 = 0.15) | excess molar enthalpy (298.15 K, x2 = 0.2) | excess molar enthalpy (298.15 K, x2 = 0.25) | excess molar enthalpy (298.15 K, x2 = 0.3) | excess molar enthalpy (298.15 K, x2 = 0.35) | excess molar enthalpy (298.15 K, x2 = 0.4) | excess molar enthalpy (298.15 K, x2 = 0.45) | excess molar enthalpy (298.15 K, x2 = 0.5) | excess molar enthalpy (298.15 K, x2 = 0.55) | excess molar enthalpy (298.15 K, x2 = 0.6) | excess molar enthalpy (298.15 K, x2 = 0.65) | excess molar enthalpy (298.15 K, x2 = 0.7) | excess molar enthalpy (298.15 K, x2 = 0.75) | excess molar enthalpy (298.15 K, x2 = 0.8) | excess molar enthalpy (298.15 K, x2 = 0.85) | excess molar enthalpy (298.15 K, x2 = 0.9) | other results
CCOCC [diethyl ether] + FC(F)(F)C(F)(F)C(F)(F)C(F)(F)C(F)(F)C(F)(F)F | – | – | – | – | – | – | – | – | – | – | – | – | – | – | – | – | – | – | – | – | excess molar enthalpy (293.15 K, x2 = 0): 0 ± 0.000478 kcal/mol; excess molar enthalpy (293.15 K, x2 = 0.05): 0.148 ± 0.00335 kcal/mol; excess molar enthalpy (293.15 K, x2 = 0.1): 0.26 ± 0.00574 kcal/mol; excess molar enthalpy (293.15 K, x2 = 0.15): 0.344 ± 0.00741 kcal/mol; excess molar enthalpy (293.15 K, x2 = 0.2): 0.408 ± 0.0086 kcal/mol; excess molar enthalpy (293.15 K, x2 = 0.25): 0.455 ± 0.00956 kcal/mol; excess molar enthalpy (293.15 K, x2 = 0.3): 0.491 ± 0.0103 kcal/mol; excess molar enthalpy (293.15 K, x2 = 0.35): 0.517 ± 0.0108 kcal/mol; excess molar enthalpy (293.15 K, x2 = 0.4): 0.535 ± 0.0112 kcal/mol; excess molar enthalpy (293.15 K, x2 = 0.45): 0.547 ± 0.0115 kcal/mol; excess molar enthalpy (293.15 K, x2 = 0.5): 0.551 ± 0.0115 kcal/mol; excess molar enthalpy (293.15 K, x2 = 0.55): 0.546 ± 0.0115 kcal/mol; excess molar enthalpy (293.15 K, x2 = 0.6): 0.533 ± 0.0112 kcal/mol; excess molar enthalpy (293.15 K, x2 = 0.65): 0.51 ± 0.0108 kcal/mol; excess molar enthalpy (293.15 K, x2 = 0.7): 0.475 ± 0.01 kcal/mol; excess molar enthalpy (293.15 K, x2 = 0.75): 0.427 ± 0.00908 kcal/mol; excess molar enthalpy (293.15 K, x2 = 0.8): 0.366 ± 0.00789 kcal/mol; excess molar enthalpy (293.15 K, x2 = 0.85): 0.292 ± 0.00621 kcal/mol; excess molar enthalpy (293.15 K, x2 = 0.9): 0.205 ± 0.00454 kcal/mol; excess molar enthalpy (293.15 K, x2 = 0.95): 0.107 ± 0.00263 kcal/mol
FC(F)(F)C(F)(F)C(F)(F)C(F)(F)C(F)(F)C(F)(F)F [perfluorohexane] + CCOCC | – | – | – | – | – | – | – | – | – | – | – | – | – | – | – | – | – | – | – | – | excess molar enthalpy (293.15 K, x1 = 1): 0 ± 0.000478 kcal/mol
FC(F)(F)C(F)(F)C(F)(F)C(F)(F)C(F)(F)C(F)(F)F [perfluorohexane] + CCCCOCCCC | 0 ± 0.000478 kcal/mol | – | – | – | – | – | – | – | – | – | – | – | – | – | – | – | – | – | – | – | excess molar enthalpy (298.15 K, x1 = 0.05): 0.144 ± 0.00335 kcal/mol; excess molar enthalpy (298.15 K, x1 = 0.1): 0.255 ± 0.0055 kcal/mol; excess molar enthalpy (298.15 K, x1 = 0.15): 0.338 ± 0.00717 kcal/mol; excess molar enthalpy (298.15 K, x1 = 0.2): 0.399 ± 0.00837 kcal/mol; excess molar enthalpy (298.15 K, x1 = 0.25): 0.443 ± 0.00932 kcal/mol; excess molar enthalpy (298.15 K, x1 = 0.3): 0.473 ± 0.01 kcal/mol; excess molar enthalpy (298.15 K, x1 = 0.35): 0.494 ± 0.0103 kcal/mol; excess molar enthalpy (298.15 K, x1 = 0.4): 0.506 ± 0.0105 kcal/mol; excess molar enthalpy (298.15 K, x1 = 0.45): 0.513 ± 0.0108 kcal/mol; excess molar enthalpy (298.15 K, x1 = 0.5): 0.515 ± 0.0108 kcal/mol; excess molar enthalpy (298.15 K, x1 = 0.55): 0.513 ± 0.0108 kcal/mol; excess molar enthalpy (298.15 K, x1 = 0.6): 0.506 ± 0.0105 kcal/mol; excess molar enthalpy (298.15 K, x1 = 0.65): 0.494 ± 0.0103 kcal/mol; excess molar enthalpy (298.15 K, x1 = 0.7): 0.474 ± 0.01 kcal/mol; excess molar enthalpy (298.15 K, x1 = 0.75): 0.444 ± 0.00932 kcal/mol; excess molar enthalpy (298.15 K, x1 = 0.8): 0.401 ± 0.0086 kcal/mol; excess molar enthalpy (298.15 K, x1 = 0.85): 0.34 ± 0.00717 kcal/mol; excess molar enthalpy (298.15 K, x1 = 0.9): 0.257 ± 0.0055 kcal/mol; excess molar enthalpy (298.15 K, x1 = 0.95): 0.146 ± 0.00335 kcal/mol
CCCCOC [butyl methyl ether] + FC(F)(F)C(F)(F)C(F)(F)C(F)(F)C(F)(F)C(F)(F)F | – | 0 ± 0.000478 kcal/mol | 0.148 ± 0.00335 kcal/mol | 0.26 ± 0.00574 kcal/mol | 0.344 ± 0.00741 kcal/mol | 0.406 ± 0.0086 kcal/mol | 0.452 ± 0.00956 kcal/mol | 0.486 ± 0.0103 kcal/mol | 0.51 ± 0.0108 kcal/mol | 0.526 ± 0.011 kcal/mol | 0.535 ± 0.0112 kcal/mol | 0.539 ± 0.0112 kcal/mol | 0.535 ± 0.0112 kcal/mol | 0.524 ± 0.011 kcal/mol | 0.505 ± 0.0105 kcal/mol | 0.475 ± 0.01 kcal/mol | 0.434 ± 0.00908 kcal/mol | 0.379 ± 0.00813 kcal/mol | 0.31 ± 0.00669 kcal/mol | 0.224 ± 0.00502 kcal/mol | excess molar enthalpy (298.15 K, x2 = 0.95): 0.121 ± 0.00287 kcal/mol
FC(F)(F)C(F)(F)C(F)(F)C(F)(F)C(F)(F)C(F)(F)F [perfluorohexane] + CCCCOCC | 0 ± 0.000478 kcal/mol | – | – | – | – | – | – | – | – | – | – | – | – | – | – | – | – | – | – | – | –
FC(F)(F)C(F)(F)C(F)(F)C(F)(F)C(F)(F)C(F)(F)F [perfluorohexane] + CCCCOC | 0 ± 0.000478 kcal/mol | – | – | – | – | – | – | – | – | – | – | – | – | – | – | – | – | – | – | – | –
FC(F)(F)C(F)(F)C(F)(F)C(F)(F)C(F)(F)C(F)(F)F [perfluorohexane] + CCCOCCC | 0 ± 0.000478 kcal/mol | – | – | – | – | – | – | – | – | – | – | – | – | – | – | – | – | – | – | – | –
CCCCOCC [butyl ethyl ether] + FC(F)(F)C(F)(F)C(F)(F)C(F)(F)C(F)(F)C(F)(F)F | – | 0 ± 0.000478 kcal/mol | 0.146 ± 0.00335 kcal/mol | 0.259 ± 0.00574 kcal/mol | 0.345 ± 0.00741 kcal/mol | 0.41 ± 0.0086 kcal/mol | 0.459 ± 0.00956 kcal/mol | 0.494 ± 0.0103 kcal/mol | 0.519 ± 0.0108 kcal/mol | 0.536 ± 0.0112 kcal/mol | 0.546 ± 0.0115 kcal/mol | 0.549 ± 0.0115 kcal/mol | 0.546 ± 0.0115 kcal/mol | 0.535 ± 0.0112 kcal/mol | 0.517 ± 0.0108 kcal/mol | 0.489 ± 0.0103 kcal/mol | 0.449 ± 0.00956 kcal/mol | 0.396 ± 0.00837 kcal/mol | 0.327 ± 0.00693 kcal/mol | 0.24 ± 0.00526 kcal/mol | excess molar enthalpy (298.15 K, x2 = 0.95): 0.132 ± 0.00311 kcal/mol
CCCOCCC [dipropyl ether] + FC(F)(F)C(F)(F)C(F)(F)C(F)(F)C(F)(F)C(F)(F)F | – | 0 ± 0.000478 kcal/mol | 0.137 ± 0.00311 kcal/mol | 0.249 ± 0.0055 kcal/mol | 0.34 ± 0.00717 kcal/mol | 0.413 ± 0.00884 kcal/mol | 0.47 ± 0.0098 kcal/mol | 0.514 ± 0.0108 kcal/mol | 0.547 ± 0.0115 kcal/mol | 0.569 ± 0.012 kcal/mol | 0.582 ± 0.0122 kcal/mol | 0.586 ± 0.0122 kcal/mol | 0.582 ± 0.0122 kcal/mol | 0.569 ± 0.012 kcal/mol | 0.546 ± 0.0115 kcal/mol | 0.514 ± 0.0108 kcal/mol | 0.469 ± 0.0098 kcal/mol | 0.411 ± 0.0086 kcal/mol | 0.338 ± 0.00717 kcal/mol | 0.247 ± 0.0055 kcal/mol | excess molar enthalpy (298.15 K, x2 = 0.95): 0.135 ± 0.00311 kcal/mol
